{"source": "patent US20040186022A1", "about": "“Enhanced herbicides” (priority 1999, published 2004)", "key": {"[1]": {"tested_on": "60 G/a: lambsquarter, foxtail and velvetleaf; spray to drip: snapbeans, corn and tomatoes", "test": "Succinic acid enhancement of oleic acid/sodium salicylate herbicidal activity (60 G/a and spray to drip)", "type": "in vivo", "description": "(§1) The herbicides were applied in the “spray to drip” amount or at a calibrated 20-60 gallons/acre. “Spray to drip” is an uncalibrated application of fluid to foliage, where sufficient spray volume is used to sufficiently saturate the foliage surface until excess fluid begins to drip from the foliage."}, "[2]": {"tested_on": "lambsquarter, velvetleaf, foxtail, nutsedge and potatoes", "test": "Succinic acid enhancement of oleic acid/sodium salicylate herbicidal activity (spray to drip)", "type": "in vivo", "description": "as §1"}, "Turf": {"tested_on": "Turf", "test": "Synergistic relationships between succinic acid and caprylic acid (or sodium salicylate), testing turf", "type": "in vivo", "conditions": "2 days after a single foliar application, 5 equals profound desiccation", "description": "as §1"}, "[3]": {"test": "Measurement of pH values for test desiccants (Example 55)", "type": "physicochemical"}, "Cotton": {"tested_on": "Cotton", "conditions": "2 days after a single foliar application", "description": "as §1"}, "soybeans [4]": {"tested_on": "soybeans", "test": "Synergistic relationships: succinic acid + caprylic acid, succinic acid + sodium salicylate, testing soybeans", "type": "in vivo", "conditions": "3 days after a single foliar application, soybean Stine 2250", "description": "as §1"}, "Turf and Shrub Foliage [5]": {"tested_on": "Turf and Shrub Foliage", "conditions": "1, 2, 4 and 7 days after a single foliar application, 5 equals profound desiccation", "description": "as §1"}, "[6]": {"tested_on": "mixed weed varieties; Canadian thistle", "test": "Field trial comparisons of caprylic/capric and pelargonic acids on mixed weed varieties (Example 58)", "type": "in vivo", "conditions": "rating 1-5 for each of 2 plots per treatment group, 5 = complete desiccation", "description": "as §1"}, "mixed weed varieties": {"tested_on": "mixed weed varieties", "test": "Field trial comparisons of caprylic/capric and pelargonic acids on mixed weed varieties (Example 57)", "type": "in vivo", "conditions": "rating 1-5 for each of 2 plots per treatment group, 5 = complete desiccation; grasses (dominant), dandelion, pigweed, plantain and Canadian thistle", "description": "as §1"}, "[7]": {"tested_on": "60 G/a: velvetleaf, black nightshade, redroot pigweed, foxtail and snapbeans; spray to drip: black nightshade, velvetleaf, foxtail and snapbeans", "test": "Efficacy of 1.5% succinic acid with oleic, caprylic or pelargonic acid in an emulsification system (Emsorb 6900)", "type": "in vivo", "parameters": "Injury rating, total score for 2 evaluation, Spray to drip / Injury rating, total score for 2 evaluation, Total Rating: scale not given here", "description": "as §1"}, "soybeans [8]": {"tested_on": "soybeans", "test": "Synergistic relationships between succinic acid and caprylic acid at different application rates, testing soybeans", "type": "in vivo", "conditions": "2 days after a single foliar application, average of 2 sites, soybean Stine 2250; for Overall Effect: 5 equals profound desiccation", "description": "as §1"}, "[9]": {"tested_on": "sudan grass, green foxtail, barnyard grass and pigweed", "test": "Enhancement of RoundUp Ultra (+/- ammonium sulfate) by succinic acid, 1 quart per acre", "type": "in vivo", "conditions": "footnote", "description": "as §1"}, "[10]": {"tested_on": "cotton (DeltaPine NuCotn 33b) foliage", "test": "Herbicidal activity on cotton foliage: succinic acid and caprylic/capric acid (c/c) combinations", "type": "in vivo", "conditions": "footnote", "description": "(§2) The herbicides were applied in the “spray to drip” amount or at a calibrated 20-60 gallons/acre. “Spray to drip” is an uncalibrated application of fluid to foliage, where sufficient spray volume is used to sufficiently saturate the foliage surface until excess fluid begins to drip from the foliage. In general, about 5 to 200 gallons/acre, preferably 20-100 gallons/acre can be effective."}, "[11]": {"tested_on": "60 G/a: nightshade, pigweed, foxtail barnyard grass, sudan grass and cotton (DeltaPine NuCotn 33b); spray to drip: Kentucky bluegrass, nutsedge, barnyard …", "test": "Herbicidal activities: succinic acid and caprylic/capric acid (c/c) combinations", "type": "in vivo", "conditions": "footnote", "description": "as §2"}, "[12]": {"tested_on": "cotton (DeltaPine NuCotn 33b), potatoes (Snowden), pigweed, sudan grass, wheat, foxtail, dry beans and velvetleaf", "test": "Synergistic relationships between 5% caprylic/capric (c/c) and succinic acid", "type": "in vivo", "conditions": "footnote", "description": "as §2"}, "[13]": {"tested_on": "60 G/a: redroot pigweed, velvetleaf, snapbeans, cotton and potatoes; spray to drip: black nightshade, lambsquarter, foxtail and snapbeans", "conditions": "footnote", "description": "as §1"}, "[14]": {"tested_on": "cotton plants, DeltaPine NuCotn 33-b, open boll", "test": "Synergistic relationships between 5% caprylic/capric (c/c) and succinic acid: desiccation of cotton plants", "type": "in vivo", "conditions": "footnote", "description": "as §2"}, "[15]": {"tested_on": "40 G/a: crab grass, chickweed and common lambsquarter; 60 G/a: redtop, pigweed, foxtail; spray to drip: barnyard grass, foxtail, sudan grass and nutsedge", "test": "Herbicidal combinations of caprylic/capric (c/c) or pelargonic acid with equimolar succinic acid and ammonium succinate, on weed varieties", "type": "in vivo", "conditions": "footnote"}, "[16]": {"tested_on": "barnyard grass, green foxtail, sudan grass and pigweed", "test": "Enhancement of RoundUp Ultra (+/- ammonium sulfate) by succinic acid, 1 pint/acre, with Sylgard 309", "type": "in vivo", "conditions": "footnote", "description": "as §1"}, "[17]": {"tested_on": "Cotton (DeltaPine NuCotn 33b)", "test": "Synergistic relationship between caprylic/capric (c/c) and succinic acid as harvest aids, cotton", "type": "in vivo", "conditions": "footnote; cotton and potatoes", "description": "as §2"}, "[18]": {"tested_on": "60 G/a: redroot pigweed, foxtail and velvetleaf; spray to drip: foxtail, dry beans and pigweed", "test": "Herbicidal activity: caprylic acid and succinic acid +/- ammonium sulfate", "type": "in vivo", "conditions": "footnote", "description": "as §1"}, "[19]": {"tested_on": "Kentucky bluegrass, barnyard grass, crab grass, pigweed, redtop, nutsedge, wheat and foxtail", "test": "Enhancement of RoundUp Ultra (+/- ammonium sulfate) by succinic acid, 1 pint/acre, no surfactant", "type": "in vivo", "conditions": "footnote", "description": "as §1"}, "Redwood pigweed": {"tested_on": "Redwood pigweed", "test": "Field trial comparisons of caprylic/capric and pelargonic acids, redroot pigweed (Example 58)", "type": "in vivo", "conditions": "rating 1-5 for each of 2 plots per treatment group, 5 = complete desiccation"}, "[20]": {"test": "Measurement of pH values for test desiccants (Example 56)", "type": "physicochemical"}, "Turf and Shrub Foliage [21]": {"tested_on": "Turf and Shrub Foliage", "test": "Effects of various compounds on caprylic acid, testing turf and shrub foliage", "type": "in vivo", "conditions": "3, 4, 6 and 7 days after a single foliar application, 5 equals profound desiccation", "description": "as §1"}, "Turf and Covergrass": {"tested_on": "Turf and Covergrass", "test": "Effects of various compounds on caprylic acid, testing turf and covergrass", "type": "in vivo", "conditions": "1, 3, 6, 7 and 11 days after a single foliar application at two independent sites, 5 equals profound desiccation", "description": "as §1"}}, "data": [{"compound": "CCCCCCCC/C=C\\CCCCCCCC(=O)O", "note": "[2% oleic acid, oleic acid]", "values": [{"measurement": "Total Injury rating, Total", "setting": "[1]; 60 G/a plus spray to drip", "result": 45.8}, {"measurement": "Total Injury rating, 60 G/a", "setting": "[1]; 60 G/a, lambsquarter, foxtail and velvetleaf, rating 1-5 per pot, two evaluations", "result": 23.5}, {"measurement": "Average rating per pot", "setting": "[1]; scale 1-5, 60 G/a and spray to drip", "result": 1.91}, {"measurement": "Total injury rating (sum over pots and evaluations)", "setting": "[2]; rating 1-5 per pot, two evaluations, 50% acetone, 0.3% Sylgard 309", "result": 26.4}, {"measurement": "Injury rating, Average rating per pot", "setting": "[2]; scale 1-5, spray to drip", "result": 2.2}]}, {"compound": "O=C([O-])c1ccccc1O.[Na+]", "note": "[Sodium Salicylate (1.0%)]", "values": [{"measurement": "Overall Effect", "setting": "Turf", "result": 1.5}, {"measurement": "pH Value", "setting": "[3]", "result": 5.63}, {"measurement": "Foliage Affected (%)", "setting": "Cotton", "result": "<70", "unit": "%"}]}, {"compound": "O=C([O-])c1ccccc1O.[Na+]", "note": "[Sodium Salicylate (1%)]", "values": [{"measurement": "Foliage Affected (%)", "setting": "soybeans [4]", "result": "15-20%"}, {"measurement": "Overall Effect", "setting": "soybeans [4]; 5 equals profound desiccation", "result": 1.5}, {"measurement": "Overall effect, 17 evaluations (average)", "setting": "Turf and Shrub Foliage [5]", "result": 1.35}]}, {"compound": "CCCCCCCCC(=O)O", "note": "[3% pelargonic, pelargonic acid]", "values": [{"measurement": "Average injury rating per plot", "setting": "[6]", "result": 4.03}, {"measurement": "Average injury rating per plot", "setting": "mixed weed varieties", "result": 4.175}, {"measurement": "Injury rating, total score for 2 evaluation, Total Rating", "setting": "[7]; 60 G/a plus spray to drip", "result": 122.9}, {"measurement": "Injury rating, total score for 2 evaluation, 60 G/a", "setting": "[7]; 60 G/a, rating 1-5 per pot, 1% Emsorb, 0.3% Hasten", "result": 85.3}, {"measurement": "Average rating per pot", "setting": "[7]; scale 1-5", "result": 4.39}, {"measurement": "Injury rating, total score for 2 evaluation, Spray to drip", "setting": "[7]; spray to drip", "result": 37.6}]}, {"compound": "O=C(O)CCC(=O)O", "note": "[Succinic Acid (1.0%)]", "values": [{"measurement": "Foliage Affected (%)", "setting": "soybeans [8]", "result": 0, "unit": "%"}, {"measurement": "Overall Effect", "setting": "soybeans [8]", "result": 0}, {"measurement": "pH Value", "setting": "[3]", "result": 1.85}, {"measurement": "Foliage Affected (%)", "setting": "Cotton", "result": "No effect"}]}, {"compound": "O=C(O)CCC(=O)O", "note": "[succinic acid]", "values": [{"measurement": "Rating of succinic acid tested alone", "setting": "[9]", "result": "Succinic acid tested alone had a rating of zero. RoundUp Ultra, alone or RoundUp Ultra + ammonium sulfate were synergistic with succinic acid"}, {"measurement": "Rating of succinic acid tested alone", "setting": "[10]", "result": "Since succinic acid tested alone had a rating of zero, caprylic/capric + succinic acid was synergistic"}, {"measurement": "Rating of succinic acid alone", "setting": "[11]", "result": "Since succinic acid, alone had a rating of zero, caprylic/capric + succinic acid was synergistic"}, {"measurement": "Rating of succinic acid alone", "setting": "[12]", "result": "Treatment of plants with succinic acid, alone, had a rating of zero"}, {"measurement": "Rating of succinic acid alone", "setting": "[13]", "result": "Succinic acid, alone, had a rating of zero. Succinic acid was synergistic with oleic, caprylic and pelargonic acids"}, {"measurement": "Rating of succinic acid alone", "setting": "[14]", "result": "Treatment of plants with succinic acid, alone, had a rating of zero"}, {"measurement": "Rating of additive tested alone", "setting": "[15]", "result": "Since succinic acid (or ammonium succinate) tested alone had a rating of zero, pelargonic acid (or c/c) + succinic acid (or ammonium succinate) were synergistic. The exception was: 3% pelargonic acid + 1.26% ammonium succinate"}, {"measurement": "Rating of succinic acid tested alone", "setting": "[16]", "result": "Succinic acid tested alone had a rating of zero. RoundUp Ultra, alone or RoundUp Ultra + ammonium sulfate were synergistic with succinic acid."}, {"measurement": "Rating of succinic acid alone", "setting": "[17]", "result": "Treatment of plants with succinic acid, alone, had a rating of zero"}, {"measurement": "Rating of succinic acid alone", "setting": "[18]", "result": "Succinic acid, alone, had a rating of zero. Caprylic acid + succinic acid was synergistic"}, {"measurement": "Rating of succinic acid alone", "setting": "[7]; footnote", "result": "Succinic acid, alone, had a rating of zero. Succinic acid was synergistic with oleic, caprylic and pelargonic acids"}, {"measurement": "Rating of succinic acid tested alone", "setting": "[19]", "result": "Succinic acid tested alone had a rating of zero. RoundUp Ultra, alone or RoundUp Ultra + ammonia sulfate were synergistic with succinic acid"}]}, {"compound": "O=C(O)CCC(=O)O", "note": "[Succinic Acid (2%)]", "values": [{"measurement": "Overall effect, 17 evaluations (average)", "setting": "Turf and Shrub Foliage [5]", "result": 0.24}]}, {"compound": "CCCCCCCCC(=O)O", "note": "[6% pelargonic]", "values": [{"measurement": "Average injury rating per plot", "setting": "Redwood pigweed", "result": 4.35}]}, {"compound": "CCCCCCCC(=O)O", "note": "[Caprylic Acid (1.0%)]", "values": [{"measurement": "pH Value", "setting": "[20]", "result": 3.85}, {"measurement": "Foliage Affected (%)", "setting": "soybeans [8]", "result": 22.3, "unit": "%"}, {"measurement": "Overall Effect", "setting": "soybeans [8]", "result": 4}, {"measurement": "Overall Effect, 29 Evaluations (average)", "setting": "Turf and Shrub Foliage [21]", "result": 1.05}, {"measurement": "Overall Effect", "setting": "Turf", "result": 2}, {"measurement": "pH Value", "setting": "[3]", "result": 3.93}, {"measurement": "Overall Effect, 10 Evaluations (average)", "setting": "Turf and Covergrass", "result": 2.45}]}]}
